Test results reported in patent publication US20020182736A1, “Methods to measure lipid antioxidant activity” (TRUSTEES OF TUFTS COLLEGE, priority 2001, published 2002).
Values joined by “and” are separate entries in the source; they are usually repeats but may differ in a detail not shown here. Equal entries are not always repeated.

What was measured:
[1] = system: lipid plasma compartment oxidation; assay: Lipid plasma compartment oxidation, BODIPY 581/591 green fluorescence; conditions: 20 mM AAPH
Description: Plasma oxidation was measured fluorometrically using two different fluorescent probes: DCFH and BODIPY. DCFH-DA and BODIPY stock solutions were prepared in EtOH and dimethylsulfoxide, respectively, stored under nitrogen at −20° C. and used within two months. The final plasma dilution was 1:5 (v/v).
In the experiments using β-carotene, to avoid the filtering effect due to the carotenoid, the oxidation product of BODIPY was also detected at λex=520 and at λem-540 nm. The fluorescence measurements were carried out using a Perkin Elmer spectrofluorometer (model 650-10s) with 1 cm path length fluorescence cuvettes.
Briefly, β-carotene (dissolved in stabilized THF, 10 mg/ml) or α-tocopherol (4.3 mg/ml in EtOH) were added to plasma to reach a final concentration of 50 μM; the samples were then vortexed for 30 sec and incubated at 37±1° C. for 1 to 6 hr under nitrogen. […] Controls were prepared in the same way using solvent only.
The effect of adding the membrane soluble antioxidants, α-tocopherol (in EtOH) and β-carotene (in THF), pre-incubated with plasma, was studied. […] Values are mean±SD of five independent experiments. Statistical analysis: one-way ANOVA with Tukey's post test; *p<0.05, **p<0.01.
To monitor the aqueous phase oxidizability, AAPH was used as a hydrophilic radical generator and coupled to DCFH was used as the indicator.

[2] = 37° C; cited from earlier work
[3] = system: aqueous plasma compartment oxidation; assay: Aqueous plasma compartment oxidation, DCFH to DCF fluorescence; set-up: species or system human
Description: The final plasma dilution was 1:5 (v/v).
DCFH was prepared from DCFH-DA by basic hydrolysis. Briefly 500 μl of DCFH-DA stock solution (1 mM) was mixed with 2 ml of NaOH (0.01 N at 4° C.) for 20 minutes while protected from the light. The mixture was then neutralized with 2 ml of HCl (0.01 N), diluted with PBS to a final concentration of 10 μM and stored in ice for no longer than 8 hrs (working solution); an aliquot of 100 μl was added to 200 μl of plasma and then diluted to a final volume of 1 ml with PBS. […] The excitation wavelength (λex) was set at […] (slit 5 nm) and emission (λem) at 520 nm (slit 5 nm).
Values are mean±SD of five independent experiments. […] Samples were incubated at 37° C. in the dark and at fixed times the DCF content measured by fluorescence (λex=502 nm, λem=520 nm).

In the case of `CC(C)(N=NC(C)(C)C(=N)N)C(=N)N.Cl.Cl` [AAPH, 2,2′-azobis (2-amidinopropane) dihydrochloride], the “delay of BODIPY oxidation in plasma” value [1] is given as 180 min, the “rate of free radical generation Ri” value [2] is given as 1.36×10^−6 [AAPH] mol/liter/sec and the “start of propagation phase of DCFH oxidation in plasma” value ([3]; 10 mM AAPH) is given as 180 min. For the same molecule, the “start of propagation phase / lag phase of DCFH oxidation in plasma” value ([3]; 20 mM AAPH, dihydrochloride) was 90 min and 120 min.
